Laboratory results as given in patent US20180334436A1 (VIIV HEALTHCARE UK LIMITED, priority 2015, published 2018).

Each compound was assayed on HIV (assay: MT4 assay (anti-HIV activity)). Details: Human immunodeficiency virus 1, 96 h, antiviral HIV activity in HTLV-1 transformed cell line MT-4; luciferase read 96 hours later; 10 point dose response.
Assay type: cell-based
How it was run: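 MT-4 cells infected with HIV, with inhibition readout by CellTiter-Glo luminescence at 96 h relative to no-compound control. Cytotoxicity measured in parallel under the same conditions. IC50 from a 10-point, 3-4-fold dilution series spanning >1000-fold, fitted with a four-parameter logistic equation.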

Row | Structure (SMILES) | IC50 [nM]
1 | COc1ccc(C(=O)N2CCc3c(C)c([C@H](OC(C)(C)C)C(=O)O)c(-c4cc(F)c5c(c4C)CCCO5)c(C)c3C2)cc1F [Example 92, (S)-2-(tert-Butoxy)-2-((R)-2-(3-fluoro-4-methoxybenzoyl)-7-(8-fluoro-5-methylchroman-6-yl)-5,8-dimethyl-1,2,3,4-tetrahydroisoquinolin-6-yl)acetic Acid] | 153
2 | Cc1c(-c2c(C)c3c(c(C)c2[C@H](OC(C)(C)C)C(=O)O)CCN(C(=O)c2cccc(OC(C)C)c2)C3)cc(F)c2c1CCCO2 [Example 93, (S)-2-(tert-Butoxy)-2-((R)-7-(8-fluoro-5-methylchroman-6-yl)-2-(3-isopropoxybenzoyl)-5,8-dimethyl-1,2,3,4-tetrahydroisoquinolin-6-yl)acetic Acid] | 178
3 | Cc1c(-c2c(C)c3c(c(C)c2[C@H](OC(C)(C)C)C(=O)O)CCN(C(=O)c2ccc(C(F)(F)F)cc2)C3)cc(F)c2c1CCCO2 [Example 94, (S)-2-(tert-Butoxy)-2-((R)-7-(8-fluoro-5-methylchroman-6-yl)-5,8-dimethyl-2-(4-(trifluoromethyl)benzoyl)-1,2,3,4-tetrahydroisoquinolin-6-yl)acetic Acid] | 384
4 | Cc1ccc(C(=O)N2CCc3c(C)c([C@H](OC(C)(C)C)C(=O)O)c(-c4cc(F)c5c(c4C)CCCO5)c(C)c3C2)cn1 [Example 96, (S)-2-(tert-Butoxy)-2-((R)-7-(8-fluoro-5-methylchroman-6-yl)-5,8-dimethyl-2-(6-methylnicotinoyl)-1,2,3,4-tetrahydroisoquinolin-6-yl)acetic Acid] | 109
5 | Cc1ccc(-c2c(C)c3c(c(C)c2C(OC(C)(C)C)C(=O)O)CC(=O)N(Cc2ccccc2)C3)cc1 (stereo not drawn) [Example 98, 2-(2-Benzyl-5,8-dimethyl-3-oxo-7-(p-tolyl)-1,2,3,4-tetrahydroisoquinolin-6-yl)-2-(tert-butoxy)acetic Acid] | 14
6 | Cc1ccc(-c2c(C)c3c(c(C)c2C(OC(C)(C)C)C(=O)O)CN(Cc2ccccc2)C(=O)C3)cc1 (stereo not drawn) [Example 99, 2-(2-Benzyl-5,8-dimethyl-3-oxo-6-(p-tolyl)-1,2,3,4-tetrahydroisoquinolin-7-yl)-2-(tert-butoxy)acetic Acid] | 3300
7 | Cc1ccc(-c2c(C)c3c(c(C)c2[C@H](OC(C)(C)C)C(=O)O)CN(Cc2ccccc2)C(=O)C3)cc1 [Example 100, (S)-2-(2-Benzyl-5,8-dimethyl-3-oxo-6-(p-tolyl)-1,2,3,4-tetrahydroisoquinolin-7-yl)-2-(tert-butoxy)acetic Acid] | 1360
8 | Cc1ccc(-c2c(C)c3c(c(C)c2[C@H](OC(C)(C)C)C(=O)O)CC(=O)N(Cc2ccccc2)C3)cc1 [Example 101, (S)-2-(2-Benzyl-5,8-dimethyl-3-oxo-7-(p-tolyl)-1,2,3,4-tetrahydroisoquinolin-6-yl)-2-(tert-butoxy)acetic Acid] | 4
9 | Cc1c(-c2c(C)c3c(c(C)c2[C@H](OC(C)(C)C)C(=O)O)CC(=O)N(C2CCCC(C)(C)C2)C3)cc(F)c2c1CCCO2 (stereo partly drawn) [Example 111, (2S)-2-(tert-butoxy)-2-((7R)-2-(3,3-dimethylcyclohexyl)-7-(8-fluoro-5-methylchroman-6-yl)-5,8-dimethyl-3-oxo-1,2,3,4-tetrahydroisoquinolin-6-yl)acetic Acid] | 3
10 | Cc1c(-c2c(C)c3c(c(C)c2[C@H](OC(C)(C)C)C(=O)O)CC(=O)N(C2CCCCC2(C)C)C3)cc(F)c2c1CCCO2 (stereo partly drawn) [Example 116, (2S)-2-(tert-butoxy)-2-((7R)-2-(2,2-dimethylcyclohexyl)-7-(8-fluoro-5-methylchroman-6-yl)-5,8-dimethyl-3-oxo-1,2,3,4-tetrahydroisoquinolin-6-yl)acetic Acid] | 3
11 | Cc1c(-c2c(C)c3c(c(C)c2[C@H](OC(C)(C)C)C(=O)O)CC(=O)N(C2CCCC(F)(F)C2)C3)cc(F)c2c1CCCO2 (stereo partly drawn) [Example 117, (2S)-2-(tert-butoxy)-2-((7R)-2-(3,3-difluorocyclohexyl)-7-(8-fluoro-5-methylchroman-6-yl)-5,8-dimethyl-3-oxo-1,2,3,4-tetrahydroisoquinolin-6-yl)acetic Acid] | 2
12 | Cc1ccc(-c2c(C)c3c(c(C)c2C(OC(C)(C)C)C(=O)O)C(=O)N(Cc2ccccc2)CC3)cc1 (stereo not drawn) [Example 121, 2-(2-benzyl-5,8-dimethyl-1-oxo-6-(p-tolyl)-1,2,3,4-tetrahydroisoquinolin-7-yl)-2-(tert-butoxy)acetic Acid] | 474
